# Data: BindingDB's records for doi:10.1016/j.chembiol.2011.05.010 (Harvard Medical School, 2011)
# Key:
# Assay in all cases: Biochemical Assay
# [1] = molecular target: T1, Aurora kinase A (Homo sapiens, UniProt O14965)
# T1 sequence (O14965 whole entry): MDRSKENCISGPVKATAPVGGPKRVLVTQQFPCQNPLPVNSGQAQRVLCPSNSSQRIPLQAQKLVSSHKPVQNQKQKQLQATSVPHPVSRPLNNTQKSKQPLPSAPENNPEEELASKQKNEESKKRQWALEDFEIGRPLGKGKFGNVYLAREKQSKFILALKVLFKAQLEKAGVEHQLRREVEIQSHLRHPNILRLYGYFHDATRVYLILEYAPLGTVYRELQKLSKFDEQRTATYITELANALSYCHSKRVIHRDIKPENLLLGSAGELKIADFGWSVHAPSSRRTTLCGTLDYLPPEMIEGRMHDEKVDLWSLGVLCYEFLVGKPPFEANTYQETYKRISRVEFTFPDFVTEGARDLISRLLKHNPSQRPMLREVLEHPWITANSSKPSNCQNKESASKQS
# Procedure: (§1) In vitro biochemical assays were performed in parallel to determine the most potent tool compound.
# [2] = molecular target: Aurora kinase B (Homo sapiens, UniProt Q96GD4)
# Procedure: as §1
# [3] = molecular target: T2, Aurora kinase C (Homo sapiens, UniProt Q9UQB9)
# T2 sequence (Q9UQB9 whole entry): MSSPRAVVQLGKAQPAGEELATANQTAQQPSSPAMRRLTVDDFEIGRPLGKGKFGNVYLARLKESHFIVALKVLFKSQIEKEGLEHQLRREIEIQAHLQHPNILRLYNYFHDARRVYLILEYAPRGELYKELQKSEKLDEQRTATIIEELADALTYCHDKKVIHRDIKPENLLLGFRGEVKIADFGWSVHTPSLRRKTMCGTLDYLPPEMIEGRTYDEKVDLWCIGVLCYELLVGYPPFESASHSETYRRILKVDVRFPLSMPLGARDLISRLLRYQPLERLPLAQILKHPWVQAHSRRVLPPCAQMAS
# Procedure: as §1
# [4] = molecular target: Homeodomain-interacting protein kinase 2 (Homo sapiens, UniProt Q9H2X6)
# Procedure: as §1
# Sequence of Homeodomain-interacting protein kinase 2 (Q9H2X6 whole entry): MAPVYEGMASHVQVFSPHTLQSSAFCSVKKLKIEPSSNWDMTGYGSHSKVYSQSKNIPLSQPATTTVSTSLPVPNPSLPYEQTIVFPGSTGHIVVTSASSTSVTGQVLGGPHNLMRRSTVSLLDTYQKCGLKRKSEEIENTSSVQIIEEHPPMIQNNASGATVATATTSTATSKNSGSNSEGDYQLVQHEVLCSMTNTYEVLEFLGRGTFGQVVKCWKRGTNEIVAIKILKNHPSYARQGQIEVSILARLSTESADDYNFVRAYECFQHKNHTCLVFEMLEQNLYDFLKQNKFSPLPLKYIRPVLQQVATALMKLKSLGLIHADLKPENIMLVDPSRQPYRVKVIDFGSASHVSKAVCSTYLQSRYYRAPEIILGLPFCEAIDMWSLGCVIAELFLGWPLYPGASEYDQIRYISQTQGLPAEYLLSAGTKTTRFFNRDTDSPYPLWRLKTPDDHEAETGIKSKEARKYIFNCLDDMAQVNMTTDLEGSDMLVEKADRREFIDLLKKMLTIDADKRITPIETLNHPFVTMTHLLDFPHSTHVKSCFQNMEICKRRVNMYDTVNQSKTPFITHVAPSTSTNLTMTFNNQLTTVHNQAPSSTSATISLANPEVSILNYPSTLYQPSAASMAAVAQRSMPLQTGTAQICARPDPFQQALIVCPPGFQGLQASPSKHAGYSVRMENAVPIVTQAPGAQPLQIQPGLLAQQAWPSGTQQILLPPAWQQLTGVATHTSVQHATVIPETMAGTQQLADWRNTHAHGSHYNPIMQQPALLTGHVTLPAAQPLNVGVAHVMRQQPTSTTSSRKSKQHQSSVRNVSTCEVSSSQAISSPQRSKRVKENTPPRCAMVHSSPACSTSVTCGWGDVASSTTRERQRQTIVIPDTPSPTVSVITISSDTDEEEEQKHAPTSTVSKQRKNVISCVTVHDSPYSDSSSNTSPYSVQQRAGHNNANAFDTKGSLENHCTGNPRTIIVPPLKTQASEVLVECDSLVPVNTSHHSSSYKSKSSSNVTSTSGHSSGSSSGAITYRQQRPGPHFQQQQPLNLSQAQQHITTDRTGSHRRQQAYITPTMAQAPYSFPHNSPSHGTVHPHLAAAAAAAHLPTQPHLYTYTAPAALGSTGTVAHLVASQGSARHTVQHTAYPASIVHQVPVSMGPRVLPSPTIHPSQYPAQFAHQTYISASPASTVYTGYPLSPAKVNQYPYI
# Sequence of Aurora kinase B (Q96GD4 whole entry): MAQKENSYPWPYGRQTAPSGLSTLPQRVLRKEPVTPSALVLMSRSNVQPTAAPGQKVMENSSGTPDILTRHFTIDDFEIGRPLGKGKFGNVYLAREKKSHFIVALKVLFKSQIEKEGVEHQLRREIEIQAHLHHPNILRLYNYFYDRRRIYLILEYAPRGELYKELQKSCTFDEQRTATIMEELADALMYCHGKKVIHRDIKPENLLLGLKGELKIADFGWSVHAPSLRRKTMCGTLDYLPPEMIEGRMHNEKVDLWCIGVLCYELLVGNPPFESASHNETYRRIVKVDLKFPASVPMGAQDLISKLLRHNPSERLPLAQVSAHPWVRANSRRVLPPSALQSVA
IC50 [1] [µM],IC50 [2] [µM],IC50 [3] [µM],IC50 [4] [µM],Kd [4] [µM],Structure (SMILES)
0.008,0.024,0.041,,,"CN1C(=O)c2ccccc2N(C)c2nc(Nc3ccc(N4CCC(O)CC4)cc3)ncc21 [Benzo[e]pyrimido[5,4-b][1,4]diazepin-6(11H)-one, 1]"
,,,0.074,0.0095,"N=C1NC(=O)/C(=C\c2c[nH]c(=O)c(-c3ccc(N4CCNCC4)nc3)c2)S1 [Furan thiazolidinediones, A64]"
